Data published in ChEMBL document CHEMBL3102801, “Synthesis and antiproliferative activity of new derivatives containing the polycyclic system 5,7:7,13-dimethanopyrazolo[3,4-b]pyrazolo[3',4':2,3]azepino[4,5-f]azocine” (Eur J Med Chem, 2014).

Legend:
Type in all cases: functional
NCI-H23 = assay: Growth inhibition of human NCI-H23 cells after 48 hrs by sulforhodamine B assay; conditions: NCI-H23, 48 h
OVCAR-3 = assay: Growth inhibition of human OVCAR3 cells after 48 hrs by sulforhodamine B assay; conditions: OVCAR-3, 48 h
SN12C = assay: Growth inhibition of human SN12C cells after 48 hrs by sulforhodamine B assay
HCT-116 = assay: Growth inhibition of human HCT116 cells after 48 hrs by sulforhodamine B assay; conditions: HCT-116, 48 h
MDA-MB-231 = assay: Growth inhibition of human MDA-MB-231 cells after 48 hrs by sulforhodamine B assay; conditions: MDA-MB-231, 48 h
ACHN = assay: Growth inhibition of human ACHN cells after 48 hrs by sulforhodamine B assay
NCI-H226 = assay: Growth inhibition of human NCI-H226 cells after 48 hrs by sulforhodamine B assay; conditions: NCI-H226, 48 h
SK-MEL-2 = assay: Growth inhibition of human SK-MEL-2 cells after 48 hrs by sulforhodamine B assay; conditions: SK-MEL-2, 48 h
IGROV-1 = assay: Growth inhibition of human IGROV1 cells after 48 hrs by sulforhodamine B assay; conditions: IGROV-1, 48 h
PC-3 = assay: Growth inhibition of human PC3 cells after 48 hrs by sulforhodamine B assay; conditions: PC-3, 48 h
SNB-19 = assay: Growth inhibition of human SNB19 cells after 48 hrs by sulforhodamine B assay; conditions: SNB-19, 48 h
Malme-3M = assay: Growth inhibition of human MALME-3M cells after 48 hrs by sulforhodamine B assay
[1] = Growth inhibition of human UACC257 cells after 48 hrs by sulforhodamine B assay; conditions: UACC-257, 48 h
[2] = Growth inhibition of human NCI-ADR-RES cells after 48 hrs by sulforhodamine B assay
A498 = assay: Growth inhibition of human A498 cells after 48 hrs by sulforhodamine B assay; conditions: A498, 48 h
786-0 = assay: Growth inhibition of human 786-0 cells after 48 hrs by sulforhodamine B assay; conditions: 786-0, 48 h
HT-29 = assay: Growth inhibition of human HT-29 cells after 48 hrs by sulforhodamine B assay; conditions: HT-29, 48 h
UACC-62 = assay: Growth inhibition of human UACC62 cells after 48 hrs by sulforhodamine B assay; conditions: UACC-62, 48 h
[3] = Growth inhibition of human RXF393 cells after 48 hrs by sulforhodamine B assay; conditions: RXF 393, 48 h
DU-145 = assay: Growth inhibition of human DU145 cells after 48 hrs by sulforhodamine B assay; conditions: DU-145, 48 h
T47D = assay: Growth inhibition of human T47D cells after 48 hrs by sulforhodamine B assay
NCI-H460 = assay: Growth inhibition of human NCI-H460 cells after 48 hrs by sulforhodamine B assay; conditions: NCI-H460, 48 h
[4] = Growth inhibition of human SF539 cells after 48 hrs by sulforhodamine B assay; conditions: SF-539, 48 h
OVCAR-8 = assay: Growth inhibition of human OVCAR8 cells after 48 hrs by sulforhodamine B assay; conditions: OVCAR-8, 48 h
HOP-62 = assay: Growth inhibition of human HOP62 cells after 48 hrs by sulforhodamine B assay; conditions: HOP-62, 48 h
SK-OV-3 = assay: Growth inhibition of human SKOV3 cells after 48 hrs by sulforhodamine B assay; conditions: SK-OV-3, 48 h
NCI-H522 = assay: Growth inhibition of human NCI-H522 cells after 48 hrs by sulforhodamine B assay; conditions: NCI-H522, 48 h
MDA-MB-468 = assay: Growth inhibition of human MDA-MB-468 cells after 48 hrs by sulforhodamine B assay; conditions: MDA-MB-468, 48 h
BT-549 = assay: Growth inhibition of human BT549 cells after 48 hrs by sulforhodamine B assay; conditions: BT-549, 48 h
SF-268 = assay: Growth inhibition of human SF268 cells after 48 hrs by sulforhodamine B assay; conditions: SF-268, 48 h
[5] = Growth inhibition of human HCC2998 cells after 48 hrs by sulforhodamine B assay; conditions: HCC 2998, 48 h
SK-MEL-28 = assay: Growth inhibition of human SK-MEL-28 cells after 48 hrs by sulforhodamine B assay; conditions: SK-MEL-28, 48 h
A549 = assay: Growth inhibition of human A549 cells after 48 hrs by sulforhodamine B assay; conditions: A549, 48 h
[6] = Growth inhibition of human Hs 578T cells after 48 hrs by sulforhodamine B assay
[7] = Growth inhibition of human OVCAR5 cells after 48 hrs by sulforhodamine B assay; conditions: OVCAR-5, 48 h
NCI-H322M = assay: Growth inhibition of human NCI-H322M cells after 48 hrs by sulforhodamine B assay
MCF7 = assay: Growth inhibition of human MCF7 cells after 48 hrs by sulforhodamine B assay; conditions: MCF7, 48 h
TK-10 = assay: Growth inhibition of human TK10 cells after 48 hrs by sulforhodamine B assay; conditions: TK-10, 48 h
U-251 = assay: Growth inhibition of human U251 cells after 48 hrs by sulforhodamine B assay; conditions: U-251, 48 h
[8] = Growth inhibition of human OVCAR4 cells after 48 hrs by sulforhodamine B assay; conditions: OVCAR-4, 48 h
[9] = Growth inhibition of human HOP92 cells after 48 hrs by sulforhodamine B assay; conditions: HOP-92, 48 h
HCT-15 = assay: Growth inhibition of human HCT15 cells after 48 hrs by sulforhodamine B assay; conditions: HCT-15, 48 h
MDA-MB-435 = assay: Growth inhibition of human MDA-MB-435 cells after 48 hrs by sulforhodamine B assay; conditions: MDA-MB-435, 48 h
[10] = Growth inhibition of human UO31 cells after 48 hrs by sulforhodamine B assay; conditions: UO-31, 48 h

COc1ccc(-n2nc(C)c3c2N(C)C2(C)CC4C3(C)C3CC4(C2)N(C)c2c(c(C)nn2-c2ccc(OC)cc2)C3C)cc1 (stereo not drawn)
GI50 (NCI-H23): 18.7 µM | GI50 (OVCAR-3): 7.14 µM | GI50 (SN12C): 8.07 µM | GI50 (HCT-116): 2.09 µM | GI50 (MDA-MB-231): 6.35 µM | GI50 (ACHN): 6.13 µM | GI50 (NCI-H226): 5.34 µM | GI50 (SK-MEL-2): 7.29 µM | GI50 (IGROV-1): 19.5 µM | GI50 (PC-3): 1.71 µM | GI50 (SNB-19): 4.45 µM | GI50 (Malme-3M): 6.34 µM | GI50 [1]: 2.34 µM | GI50 [2]: 8.03 µM | GI50 (A498): 3.95 µM | GI50 (786-0): 5.47 µM | GI50 (HT-29): 3.39 µM | GI50 (UACC-62): 12.6 µM | GI50 [3]: 2.92 µM | GI50 (DU-145): 23 µM | GI50 (T47D): 2.44 µM | GI50 (NCI-H460): 3.69 µM | GI50 [4]: 63.5 µM | GI50 (OVCAR-8): 4.19 µM | GI50 (HOP-62): 3.1 µM | GI50 (SK-OV-3): 2.53 µM | GI50 (NCI-H522): 0.891 µM | GI50 (MDA-MB-468): 4.76 µM | GI50 (BT-549): 4.17 µM | GI50 (SF-268): 4.08 µM | GI50 [5]: 9.65 µM | GI50 (SK-MEL-28): 1.52 µM | GI50 (A549): 3.29 µM | GI50 [6]: 4.27 µM | GI50 [7]: > 100 µM | GI50 (NCI-H322M): 22.4 µM | GI50 (MCF7): 4.02 µM | GI50 (TK-10): 4.77 µM | GI50 (U-251): 3.94 µM | GI50 [8]: 5.95 µM

C=C1c2c(C)nn(-c3ccccc3)c2N(C)C23CC1C1(C)c4c(C)nn(-c5ccccc5)c4N(C)C(C)(CC12)C3 (stereo not drawn)
GI50 (NCI-H23): 7.99 µM | GI50 (OVCAR-3): 4.58 µM | GI50 (SN12C): 9.92 µM | GI50 (HCT-116): 3.72 µM | GI50 (MDA-MB-231): 4.55 µM | GI50 (ACHN): 4.78 µM | GI50 (NCI-H226): 15.3 µM | GI50 (SK-MEL-2): 6.78 µM | GI50 (IGROV-1): 11.9 µM | GI50 (PC-3): 0.979 µM | GI50 (SNB-19): 11 µM | GI50 (Malme-3M): 4.19 µM | GI50 [1]: 2.87 µM | GI50 [2]: 6.04 µM | GI50 (A498): 4.28 µM | GI50 (786-0): 11.8 µM | GI50 (HT-29): 3.59 µM | GI50 (UACC-62): 4.38 µM | GI50 [3]: 2.04 µM | GI50 (DU-145): 8.7 µM | GI50 (T47D): 2.13 µM | GI50 (NCI-H460): 3.35 µM | GI50 [4]: 26.7 µM | GI50 (OVCAR-8): 5.41 µM | GI50 (HOP-62): 7.15 µM | GI50 (SK-OV-3): 4.64 µM | GI50 (NCI-H522): 2.12 µM | GI50 (MDA-MB-468): 2.9 µM | GI50 (BT-549): 5.55 µM | GI50 (SF-268): 7.52 µM | GI50 [5]: 6.22 µM | GI50 (SK-MEL-28): 2.26 µM | GI50 (A549): 2.37 µM | GI50 [6]: 5.67 µM | GI50 [7]: > 100 µM | GI50 [9]: 0.549 µM | GI50 (NCI-H322M): 33.8 µM | GI50 (MCF7): 2.99 µM | GI50 (TK-10): 4.77 µM | GI50 (HCT-15): 3.67 µM | GI50 (U-251): 4.44 µM | GI50 (MDA-MB-435): 4.12 µM | GI50 [8]: 4.49 µM

Cc1nn(-c2ccccc2)c2c1C(C)C1CC3(CC4(C)CC3C1(C)c1c(C)nn(-c3ccccc3)c1N4C)N2C (stereo not drawn)
GI50 (NCI-H23): > 100 µM | GI50 (SN12C): > 100 µM | GI50 [10]: > 100 µM | GI50 (MDA-MB-231): > 100 µM | GI50 (NCI-H226): > 100 µM | GI50 (SK-MEL-2): > 100 µM | GI50 (IGROV-1): > 100 µM | GI50 (PC-3): 0.591 µM | GI50 (SNB-19): > 100 µM | GI50 (Malme-3M): > 100 µM | GI50 [2]: > 100 µM | GI50 (A498): > 100 µM | GI50 (786-0): > 100 µM | GI50 [3]: 3.41 µM | GI50 (T47D): 2.64 µM | GI50 [4]: > 100 µM | GI50 (HOP-62): 18.3 µM | GI50 (SK-OV-3): 24.1 µM | GI50 (NCI-H522): 3.88 µM | GI50 (BT-549): > 100 µM | GI50 (SF-268): > 100 µM | GI50 [5]: > 100 µM | GI50 (SK-MEL-28): 3.14 µM | GI50 [6]: > 100 µM | GI50 [7]: > 100 µM | GI50 [9]: 0.792 µM | GI50 (NCI-H322M): > 100 µM | GI50 (MCF7): 3.46 µM | GI50 (TK-10): > 100 µM | GI50 [8]: 8.66 µM
